In the NIST ThermoML archive (doi:10.1016/j.jct.2008.01.023):

Tests used:
[1] = refractive index (Na D-line) (dimensionless); settings: 298.15 K; 101.33 kPa; Liquid; Standard Abbe refractometry
[2] = 298.15 K; 101.33 kPa; Liquid
[3] = xn = mol fraction of the nth substance listed; settings: 298.15 K, 101 kPa, Liquid
[4] = refractive index (Na D-line) (dimensionless); xn = mol fraction of the nth substance listed; settings: 298.15 K, 101 kPa, Liquid, Standard Abbe refractometry

C[N+](=O)[O-] [nitromethane]
Settings | mass density [kg/m3] | refractive index
[1] | – | 1.3796
[2] | 1131.17 | –

CCCCn1cc[n+](C)c1.COS(=O)(=O)[O-] [1-butyl-3-methylimidazolium methyl sulfate] + C[N+](=O)[O-]
Settings | mass density, [3] [kg/m3] | refractive index, [4]
x1 = 0.0398 | 1146.67 | 1.3953
x1 = 0.1021 | 1161.66 | 1.4128
x1 = 0.1433 | 1168.87 | 1.4218
x1 = 0.1988 | 1176.21 | 1.4316
x1 = 0.2444 | 1180.95 | 1.4382
x1 = 0.2998 | 1185.58 | 1.4449
x1 = 0.3979 | 1191.69 | 1.4541
x1 = 0.4786 | 1195.47 | 1.4596
x1 = 0.5652 | 1198.52 | 1.4648
x1 = 0.7127 | 1202.66 | 1.4714
x1 = 0.8212 | 1204.74 | 1.4748
x1 = 0.8546 | 1205.4 | 1.4758

CCCCn1cc[n+](C)c1.COS(=O)(=O)[O-] [1-butyl-3-methylimidazolium methyl sulfate] + CCO
Settings | mass density, [3] [kg/m3] | refractive index, [4]
x1 = 0.0459 | 850.62 | 1.3791
x1 = 0.0987 | 909.24 | 1.3956
x1 = 0.142 | 948.07 | 1.4067
x1 = 0.1905 | 984.34 | 1.417
x1 = 0.2357 | 1012.98 | 1.4253
x1 = 0.2733 | 1033.54 | 1.4314
x1 = 0.3516 | 1069.63 | 1.4414
x1 = 0.4381 | 1101.3 | 1.4503
x1 = 0.5335 | 1129.08 | 1.4581
x1 = 0.5712 | 1138.45 | 1.4609
x1 = 0.6742 | 1160.39 | 1.4667
x1 = 0.7665 | 1176.77 | 1.4715
x1 = 0.8482 | 1188.91 | 1.4745
x1 = 0.9248 | 1199.03 | 1.4772

CCOCCOCCO [3,6-dioxa-1-octanol] + CCCCn1cc[n+](C)c1.F[B-](F)(F)F
Settings | mass density, [3] [kg/m3] | refractive index, [4]
x2 = 0.0544 | 1003.36 | 1.4268
x2 = 0.1016 | 1018.2 | 1.4274
x2 = 0.1492 | 1032.87 | 1.4277
x2 = 0.1941 | 1045.1 | 1.4278
x2 = 0.2686 | 1065.22 | 1.4278
x2 = 0.3215 | 1078.37 | 1.4277
x2 = 0.3932 | 1094.93 | 1.4273
x2 = 0.5108 | 1119.82 | 1.4265
x2 = 0.6016 | 1137.49 | 1.4257
x2 = 0.6657 | 1149.16 | 1.425
x2 = 0.6998 | 1155.07 | 1.4247
x2 = 0.8304 | 1176.5 | 1.4235
x2 = 0.9551 | 1195.04 | 1.4223

CCOCCOCCO [3,6-dioxa-1-octanol] + CCCCn1cc[n+](C)c1.COS(=O)(=O)[O-]
Settings | mass density, [3] [kg/m3] | refractive index, [4]
x2 = 0.0517 | 1003.36 | 1.4307
x2 = 0.0891 | 1016.08 | 1.4339
x2 = 0.1483 | 1035.02 | 1.4388
x2 = 0.2233 | 1057.1 | 1.4443
x2 = 0.2901 | 1074.98 | 1.4488
x2 = 0.3194 | 1082.5 | 1.4507
x2 = 0.3902 | 1099.82 | 1.4548
x2 = 0.4732 | 1118.6 | 1.4593
x2 = 0.5364 | 1131.83 | 1.4626
x2 = 0.6235 | 1148.55 | 1.4663
x2 = 0.696 | 1161.73 | 1.4697
x2 = 0.8065 | 1179.9 | 1.4735
x2 = 0.8947 | 1193.18 | 1.4763

CCCCn1cc[n+](C)c1.COS(=O)(=O)[O-] [1-butyl-3-methylimidazolium methyl sulfate] + OCCO
Settings | mass density, [3] [kg/m3] | refractive index, [4]
x1 = 0.0341 | 1195.09 | 1.4334
x1 = 0.0854 | 1115.82 | 1.4373
x1 = 0.1079 | 1172.89 | 1.439
x1 = 0.1946 | 1123.61 | 1.4449
x1 = 0.2446 | 1170.78 | 1.4479
x1 = 0.2999 | 1126.01 | 1.4511
x1 = 0.353 | 1164.56 | 1.454
x1 = 0.4399 | 1138.05 | 1.4582
x1 = 0.5061 | 1150.15 | 1.4616
x1 = 0.5299 | 1188.48 | 1.4625
x1 = 0.636 | 1143.98 | 1.4672
x1 = 0.717 | 1155.76 | 1.4703
x1 = 0.8055 | 1182.08 | 1.4735
x1 = 0.907 | 1201.87 | 1.4768
